For one assay, the target named is T1, COX-1 (Ovis aries, UniProt P05979).
T1 construct: purchased
T1 sequence (P05979 25-600): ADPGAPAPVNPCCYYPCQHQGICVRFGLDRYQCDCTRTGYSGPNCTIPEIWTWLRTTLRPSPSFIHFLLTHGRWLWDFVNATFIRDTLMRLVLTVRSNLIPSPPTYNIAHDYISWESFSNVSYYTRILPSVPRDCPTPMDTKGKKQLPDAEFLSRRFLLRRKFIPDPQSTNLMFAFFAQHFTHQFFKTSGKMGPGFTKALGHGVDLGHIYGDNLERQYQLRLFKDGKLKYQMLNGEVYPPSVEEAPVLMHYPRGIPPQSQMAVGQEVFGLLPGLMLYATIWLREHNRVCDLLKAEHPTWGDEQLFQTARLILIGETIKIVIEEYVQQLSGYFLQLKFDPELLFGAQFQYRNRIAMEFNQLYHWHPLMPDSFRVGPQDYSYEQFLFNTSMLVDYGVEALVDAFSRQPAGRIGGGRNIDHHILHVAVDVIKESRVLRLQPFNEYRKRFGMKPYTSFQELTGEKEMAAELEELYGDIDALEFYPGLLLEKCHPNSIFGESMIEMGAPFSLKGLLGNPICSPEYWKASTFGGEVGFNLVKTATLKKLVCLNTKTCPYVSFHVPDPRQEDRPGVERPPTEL
As to the kind of experiment: Cyclooxygenase inhibition assay (colorimetric, peroxidase activity, TMPD oxidation). Format: biochemical. Particulars: incubation 2 min; mean ± SD. How it is done:
(§1) To conduct the cyclooxygenase inhibition assay, we utilized a kit from the manufacturer that contained 150 μL of assay buffer, 10 μL of heme, and 10 μL of either COX-1 or COX-2 enzyme. Each sample was prepared in triplicate, with the addition of 10–500 μM of the test compounds and […] of solvents such as methanol, ethanol, and dimethyl sulfoxide (DMSO). We then added 20 μL of N,N,N cent,N cent-tetramethyl-p-phenylenediamine (TMPD) to each well. Arachidonic acid was introduced to initiate the reaction, which was allowed to proceed for 2 min. Following the incubation period, the extent of TMPD oxidation was measured using the multiscan Go microplate reader at a wavelength of 590 nm (Thermo Fisher Scientific, Waltham, MA, USA).
Cyclooxygenase (COX) peroxidase activity was evaluated using a colorimetric assay. […] The incubation period was maintained at 2 min, following the manufacturer’s guidelines. […] We determined the concentrations of all compounds required for 50% inhibition of COX-1 and COX-2. IC50 values were then calculated, and the ratio of IC50 values for both cyclooxygenase isoforms allowed us to assess the selectivity of the tested structures for COX-1 and COX-2.

For a further assay, the target named is T2, COX-2 (Homo sapiens, UniProt P35354).
T2 construct: purchased
T2 sequence (P35354 18-604): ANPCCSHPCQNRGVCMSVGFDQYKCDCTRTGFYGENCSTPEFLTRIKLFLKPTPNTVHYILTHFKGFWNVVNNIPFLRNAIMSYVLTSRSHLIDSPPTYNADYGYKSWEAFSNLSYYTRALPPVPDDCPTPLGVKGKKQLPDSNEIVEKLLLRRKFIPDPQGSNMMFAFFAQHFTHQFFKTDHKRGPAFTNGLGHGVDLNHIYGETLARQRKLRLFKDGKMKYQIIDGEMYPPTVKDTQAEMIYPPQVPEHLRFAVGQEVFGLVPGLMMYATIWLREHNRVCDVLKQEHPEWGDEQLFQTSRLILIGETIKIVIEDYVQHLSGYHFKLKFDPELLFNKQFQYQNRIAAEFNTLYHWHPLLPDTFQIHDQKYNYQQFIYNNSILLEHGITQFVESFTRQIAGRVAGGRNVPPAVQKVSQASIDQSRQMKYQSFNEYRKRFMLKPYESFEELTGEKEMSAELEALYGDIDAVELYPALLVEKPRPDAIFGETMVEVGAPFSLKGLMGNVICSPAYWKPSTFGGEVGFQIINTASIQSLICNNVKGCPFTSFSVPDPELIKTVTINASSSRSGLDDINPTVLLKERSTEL
Described as above. Particulars: for IC50: incubation 2 min, mean ± SD; for Selectivity Ratio: (COX-2/COX-1): ratio of IC50 values. Format: biochemical. How it is done:
as §1
Cyclooxygenase (COX) peroxidase activity was evaluated using a colorimetric assay. […] The incubation period was maintained at 2 min, following the manufacturer’s guidelines. […] IC50 values were then calculated, and the ratio of IC50 values for both cyclooxygenase isoforms allowed us to assess the selectivity of the tested structures for COX-1 and COX-2.

Assay [1] deals with NHDF (normal human dermal fibroblast) cells. Nature of the assay: MTT cytotoxicity assay. Format: cell-based. As to conditions: NHDF cell cultures, 24 h incubation, mean ± SD. The protocol:
NHDF (normal human dermal fibroblast) cells, sourced from the American Type Culture Collection (ATCC), were maintained in DMEM without phenol red, enhanced with 10% fetal bovine serum (FBS), 2 mM L-glutamine, and 25 μg/mL gentamicin. The cells were incubated under conditions of 5% CO2, at a temperature of 37 °C, and 95% humidity. We monitored the cells bi-weekly, utilizing or subculturing them once they reached over 70% confluence. For all experimental setups, cells were plated at a density of 10,000 cells per well and allowed to recover in a CO2 incubator for 24 h.
The compounds under investigation were dissolved in DMSO to achieve a final concentration of 10 mM and then stored at −20 °C. Lipopolysaccharide (LPS) from Escherichia coli (Sigma-Aldrich, Saint Louis, MO, USA; catalog no. L2630) was dissolved in distilled water to a concentration of […]. The stock solution of LPS was stored at −20 °C for up to 6 months. Final concentrations of LPS used in this study were 50 µg/mL. Prior to use, the solutions were thawed at room temperature. For each compound, 8 different concentrations in the range of 500–10 μM were prepared in the culture medium.
The cytotoxicity of the test compound was assessed using the MTT assay. After cell seeding and overnight incubation, the supernatant was removed, and the compounds were added at concentrations ranging from 500 to 10 µM. Control cells were treated with complete medium only, while cells treated with medium containing DMSO at the highest compound concentration were included as the solvent control. After the incubation period, the supernatant was removed, and 50 µL of a 1.0 mg/mL MTT solution was added to each well and incubated for 2 h at 37 °C. The medium was then removed, and 100 µL of DMSO was added to each well. Finally, absorbance was measured at 570 nm using a Multiskan GO spectrophotometer.
Cell viability was calculated according to Equation (1): (Ai − Am)/(Ac − Am) × 100(Ai − Am)/(Ac − Am) × 100(1) where Ai is the absorbance of the tested concentration, Am is the absorbance of the medium, and Ac is the absorbance of the control. Based on the cytotoxicity test results, the IC50 was calculated using a 4-point lognormal distribution with a Hill coefficient. Experiments were performed in triplicate.
(Tetrazolium dyes change colour on reduction, which living cells bring about.)

Assay [2] in a line: ABTS radical scavenging assay. Particulars: 30 min incubation; mean ± SD, n = 3. Format: physicochemical. How it is done: The activity of ABTS (2,2′-azino-bis(3-ethylbenzothiazoline-6-sulphonic acid)) was assessed to evaluate the radical scavenging potential of the synthesized compounds. The ABTS reagent was generated by combining equal volumes of a 7 mM aqueous solution of ABTS and a 2.45 mM potassium persulfate solution. This mixture was then incubated in the dark at room temperature for 16 h. Following incubation, the solution was diluted with ethanol until the absorbance reached approximately 0.7 ± 0.05 at a wavelength of 734 nm. The stock solutions of the synthesized compounds in DMSO were serially diluted to obtain concentrations ranging from 500 μM to 10 μM in ethanol. The ABTS reagent was then treated with various concentrations of each compound and incubated in the dark at room temperature. After 30 min of incubation, the absorbance was measured at 734 nm, using ethanol as the blank control. Ascorbic acid served as the standard for comparison, and the IC50 values for the synthesized compounds were calculated using the following Equation (3):(3) %ABTS scavenging activity=Abscontrol−Abs sample/Abs (control)×100

The nature of assay [3]: DPPH radical scavenging assay. It counts as physicochemical. As to conditions: 30 min incubation, 37 °C; mean ± SD, n = 3. The protocol: The DPPH assay was conducted to assess the radical scavenging capabilities of the synthesized compounds. Stock solutions of the compounds were formulated in DMSO and subsequently diluted serially to achieve test concentrations ranging from 500 to 10 μM in ethanol. Each sample’s ethanolic DPPH solution was treated with the respective test concentrations and incubated at 37 °C. After a 30 min incubation period, the absorbance was measured at 517 nm, using ethanol as the blank control. Ascorbic acid served as the reference standard, and the IC50 values for the synthesized compounds were determined using the following Equation (2):(2) %DPPH scavenging activity=Abscontrol−Abs sample/Abs (control)×100

The structures appear in SMILES notation.

Usually IC50 stands for the point on the concentration scale where inhibition reaches its midpoint. As to `O=C(C1=C(O)c2ccccc2S(=O)(=O)N1CCCN1CCN(c2ccccn2)CC1)c1ccc(F)cc1` [BS26], the half-maximal inhibitory concentration (IC50) on COX-1 is 129 ± 9.1 µM; on COX-2 it was 18.2 ± 4.3 µM; in assay [1] it was 203 ± 22.9 µM; in assay [2], 83.7 ± 3.2 µM; in assay [3] it was more than 500 µM. Also, on COX-2, the “Selectivity Ratio: (COX-2/COX-1)” value amounted to 0.14.
With `COc1ccc(C(=O)C2=C(O)c3ccccc3S(=O)(=O)N2CCCN2CCN(c3ncccn3)CC2)cc1` [BS24], the IC50 against COX-1 was 127 ± 3.6 µM; against COX-2, 26.3 ± 3.4 µM; in assay [1], 163 ± 15.7 µM; in assay [2], 63.2 ± 2.8 µM; in assay [3], more than 500 µM. For the same compound, the “Selectivity Ratio: (COX-2/COX-1)” value on COX-2 is listed as 0.21.
`Cc1cnc(NC(=O)C2=C(O)c3ccccc3S(=O)(=O)N2C)s1` [meloxicam, reference compound]: the half-maximal inhibitory concentration (IC50) was 174 ± 20.3 µM in assay [1], 89.5 ± 1.5 µM in assay [2] and more than 500 µM in assay [3].
In the case of `Cc1ccc(C(=O)C2=C(O)c3ccccc3S(=O)(=O)N2CCCN2CCN(c3ccccn3)CC2)cc1` [BS25], the concentration for half-maximal inhibition (IC50) on COX-1 is 131 ± 7.5 µM; on COX-2 it was 62.6 ± 1.7 µM; in assay [1], 200 ± 20.9 µM; in assay [2], 75.3 ± 1.4 µM; in assay [3], more than 500 µM. Moreover, the “Selectivity Ratio: (COX-2/COX-1)” value at COX-2 turned out to be 0.48.
`O=C1O[C@H]([C@@H](O)CO)C(O)=C1O` [ascorbic acid, reference compound]: the IC50 came to 124 ± 2.3 µM in assay [2] and 218.3 ± 1.8 µM in assay [3].
As for `O=C(C1=C(O)c2ccccc2S(=O)(=O)N1CCCN1CCN(c2ccccn2)CC1)c1ccc(Br)cc1` [BS29], the IC50 is 125 ± 6.7 µM on COX-1; 17.8 ± 2.1 µM on COX-2; 233 ± 11.8 µM in assay [1]; 53.7 ± 1.7 µM in assay [2]; more than 500 µM in assay [3]. The “Selectivity Ratio: (COX-2/COX-1)” value on COX-2 was 0.14.
As to `O=C(C1=C(O)c2ccccc2S(=O)(=O)N1CCCN1CCN(c2ncccn2)CC1)c1ccc(F)cc1` [BS27], the IC50 was 117 ± 4.3 µM against COX-1; 25.6 ± 2 µM on COX-2; 191 ± 12.5 µM in assay [1]; 83.3 ± 2.5 µM in assay [2]; more than 500 µM in assay [3]. For the same compound, the “Selectivity Ratio: (COX-2/COX-1)” value at COX-2 came out at 0.22.
As to `O=C(C1=C(O)c2ccccc2S(=O)(=O)N1CCCN1CCN(c2ncccn2)CC1)c1ccc(Br)cc1` [BS30], the half-inhibitory concentration (IC50) against COX-1 was 122 ± 3.4 µM; against COX-2 it was 59.2 ± 3.7 µM; in assay [1] it was 168 ± 30.4 µM; in assay [2], 88.3 ± 1.6 µM; in assay [3], more than 500 µM. Moreover, the “Selectivity Ratio: (COX-2/COX-1)” value on COX-2 is recorded as 0.49.

Values taken from publication PMC11678778, “Anti-Inflammatory Properties of Novel 1,2-Benzothiazine Derivatives and Their Interaction with Phospholipid Model Membranes” (Membranes, 2024).
